Holding throughout (test): Ras-Raf disruption / FRET / MOA assay (BRAF RBD)
Holding throughout (assay type): biochemical

In one assay the target is NRAS Q61K (Homo sapiens, UniProt P01111+P62937, Q61K). The following applies: NRAS Q61K; read-out: NRAS Q61K FRET data IC50. A digest of the protocol:
(§1)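 TR-FRET in 25 mM HEPES pH 7.3, 100 mM NaCl, 5 mM MgCl2, 0.1% BSA, 0.002% Tween20 with 25 μM Cyclophilin A, 12.5 nM His6-Ras-GMPPNP, 50 nM GST-BRAF RBD; compound 10-point 3-fold series from 30 μM. After 3 h at 25 °C, Eu anti-His/APC anti-GST added for 1.5 h; IC50 from ratio decrease versus DMSO.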

A further assay concerns the target NRAS Q61R (Homo sapiens, UniProt P01111+P62937, Q61R). Conditions: NRAS Q61R; read-out: NRAS Q61R FRET data IC50. The gist of the method:
as §1

Another assay addresses NRAS WT (Homo sapiens, UniProt P01111+P62937). Conditions: NRAS WT; read-out: NRAS WT FRET data IC50. A digest of the protocol: as §1
The target of a further assay is KRAS WT (Homo sapiens, UniProt P01116+P62937). Conditions: Ras-Raf disruption, with Cyclophilin A; read-out: KRAS WT FRET data IC50. The gist of the method: as §1
The next assay concerns the target KRAS G12D (Homo sapiens, UniProt P01116+P62937, G12D). Conditions: Ras-Raf disruption, with Cyclophilin A; read-out: KRAS G12D FRET data IC50. A digest of the protocol:
as §1

The next assay concerns the target NRAS G12C (Homo sapiens, UniProt P01111+P62937, G12C). The following applies: NRAS G12C; read-out: NRAS G12C FRET data IC50. A digest of the protocol:
as §1

A further assay addresses KRAS G12S (Homo sapiens, UniProt P01116+P62937, G12S). Conditions: Ras-Raf disruption, with Cyclophilin A; read-out: KRAS G12S FRET data IC50. The gist of the method: as §1
The target in a further assay is KRAS G13D (Homo sapiens, UniProt P01116+P62937, G13D). The following applies: Ras-Raf disruption, with Cyclophilin A; read-out: KRAS G13D FRET data IC50. The gist of the method: as §1
Another assay has as its target KRAS Q61H (Homo sapiens, UniProt P01116+P62937, Q61H). Conditions: KRAS Q61H; read-out: KRAS Q61H FRET data IC50. The gist of the method: as §1
The next assay addresses KRAS G13C (Homo sapiens, UniProt P01116+P62937, G13C). Conditions: Ras-Raf disruption, with Cyclophilin A; read-out: KRAS G13C FRET data IC50. The gist of the method: as §1
Another assay addresses KRAS G12V (Homo sapiens, UniProt P01116+P62937, G12V). Conditions: Ras-Raf disruption, with Cyclophilin A; read-out: KRAS G12V FRET data IC50. The gist of the method: as §1
For a further assay, the target named is KRAS G12C (Homo sapiens, UniProt P01116+P62937, G12C). Conditions: Ras-Raf disruption, with Cyclophilin A; read-out: KRAS G12C FRET data IC50. The gist of the method:
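His6-K-Ras G12C-GMPPNP (12.5 nM), GST-BRAF RBD (50 nM) and tagless Cyclophilin A (25 μM) incubated 3 h at 25 °C with compound (10-point 3-fold series from 30 μM), pH 7.3 HEPES buffer. Anti-His Eu/anti-GST APC added for 1.5 h; decreased TR-FRET ratio vs DMSO gives IC50.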

SMILES strings stand for the structures.

Sequence of NRAS Q61R (P01111 whole entry Q61R): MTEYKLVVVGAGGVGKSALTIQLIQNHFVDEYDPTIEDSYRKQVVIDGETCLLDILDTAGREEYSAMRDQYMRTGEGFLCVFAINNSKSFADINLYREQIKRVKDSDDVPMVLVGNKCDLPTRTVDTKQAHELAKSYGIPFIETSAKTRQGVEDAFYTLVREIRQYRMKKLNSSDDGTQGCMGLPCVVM
Sequence of NRAS Q61R (P62937 whole entry): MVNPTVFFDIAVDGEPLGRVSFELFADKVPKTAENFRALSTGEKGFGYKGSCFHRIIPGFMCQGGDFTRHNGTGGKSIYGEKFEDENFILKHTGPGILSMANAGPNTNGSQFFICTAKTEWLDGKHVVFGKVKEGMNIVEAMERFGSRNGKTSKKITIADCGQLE
Sequence of NRAS WT (P01111 whole entry): as the sequence (P01111 whole entry Q61R) above, with R61Q counted along it
Sequence of NRAS WT (P62937 whole entry): as the sequence (P62937 whole entry) above
Sequence of KRAS G13C (P01116 1-169 isoform P01116-2 G13C limits assumed): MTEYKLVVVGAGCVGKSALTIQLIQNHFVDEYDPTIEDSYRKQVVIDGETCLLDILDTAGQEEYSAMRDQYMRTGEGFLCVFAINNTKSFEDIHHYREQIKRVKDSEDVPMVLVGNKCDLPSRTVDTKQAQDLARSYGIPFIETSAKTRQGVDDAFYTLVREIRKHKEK
Sequence of KRAS G13C (P62937 whole entry): as the sequence (P62937 whole entry) above
Sequence of KRAS Q61H (P01116 1-169 isoform P01116-2 Q61H limits assumed): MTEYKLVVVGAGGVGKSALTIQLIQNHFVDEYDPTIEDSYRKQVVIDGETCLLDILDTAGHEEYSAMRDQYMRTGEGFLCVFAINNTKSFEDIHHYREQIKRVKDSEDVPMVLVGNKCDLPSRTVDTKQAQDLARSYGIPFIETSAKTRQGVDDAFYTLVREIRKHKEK
Sequence of KRAS Q61H (P62937 whole entry): as the sequence (P62937 whole entry) above
Sequence of KRAS G12C (P01116 1-169 isoform P01116-2 G12C limits assumed): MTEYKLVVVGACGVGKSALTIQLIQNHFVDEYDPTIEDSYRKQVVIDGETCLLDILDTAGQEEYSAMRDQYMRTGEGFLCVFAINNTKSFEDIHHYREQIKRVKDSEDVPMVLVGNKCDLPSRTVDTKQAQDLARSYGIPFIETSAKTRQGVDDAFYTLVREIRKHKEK
Sequence of KRAS G12C (P62937 whole entry): as the sequence (P62937 whole entry) above
Sequence of KRAS G13D (P01116 1-169 isoform P01116-2 G13D limits assumed): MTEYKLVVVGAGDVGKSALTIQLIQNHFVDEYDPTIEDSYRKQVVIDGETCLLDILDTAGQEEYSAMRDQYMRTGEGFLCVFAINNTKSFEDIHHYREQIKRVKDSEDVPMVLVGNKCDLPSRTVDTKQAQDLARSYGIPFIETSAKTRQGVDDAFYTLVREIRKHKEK
Sequence of KRAS G13D (P62937 whole entry): as the sequence (P62937 whole entry) above
Sequence of NRAS Q61K (P01111 whole entry Q61K): as the sequence (P01111 whole entry Q61R) above, with R61K counted along it
Sequence of NRAS Q61K (P62937 whole entry): as the sequence (P62937 whole entry) above
Sequence of KRAS WT (P01116 1-169 isoform P01116-2 limits assumed): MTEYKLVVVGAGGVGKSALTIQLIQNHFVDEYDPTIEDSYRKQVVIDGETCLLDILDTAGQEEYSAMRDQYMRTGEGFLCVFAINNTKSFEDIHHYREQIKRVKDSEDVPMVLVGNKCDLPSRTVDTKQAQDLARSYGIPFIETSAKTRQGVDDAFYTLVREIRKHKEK
Sequence of KRAS WT (P62937 whole entry): as the sequence (P62937 whole entry) above
Sequence of KRAS G12D (P01116 1-169 isoform P01116-2 G12D limits assumed): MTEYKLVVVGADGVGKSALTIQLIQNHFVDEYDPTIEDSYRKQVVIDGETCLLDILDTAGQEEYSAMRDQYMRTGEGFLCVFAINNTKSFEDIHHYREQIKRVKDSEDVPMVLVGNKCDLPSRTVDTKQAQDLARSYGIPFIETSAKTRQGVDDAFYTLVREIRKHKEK
Sequence of KRAS G12D (P62937 whole entry): as the sequence (P62937 whole entry) above
Sequence of KRAS G12V (P01116 1-169 isoform P01116-2 G12V limits assumed): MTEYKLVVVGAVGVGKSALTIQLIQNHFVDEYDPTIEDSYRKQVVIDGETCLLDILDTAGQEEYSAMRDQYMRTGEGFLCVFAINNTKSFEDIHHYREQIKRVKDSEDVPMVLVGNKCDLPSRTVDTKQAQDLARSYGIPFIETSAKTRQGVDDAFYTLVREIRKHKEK
Sequence of KRAS G12V (P62937 whole entry): as the sequence (P62937 whole entry) above
Sequence of NRAS G12C (P01111 whole entry G12C): as the sequence (P01111 whole entry Q61R) above, with G12C, R61Q counted along it
Sequence of NRAS G12C (P62937 whole entry): as the sequence (P62937 whole entry) above
Sequence of KRAS G12S (P01116 1-169 isoform P01116-2 G12S limits assumed): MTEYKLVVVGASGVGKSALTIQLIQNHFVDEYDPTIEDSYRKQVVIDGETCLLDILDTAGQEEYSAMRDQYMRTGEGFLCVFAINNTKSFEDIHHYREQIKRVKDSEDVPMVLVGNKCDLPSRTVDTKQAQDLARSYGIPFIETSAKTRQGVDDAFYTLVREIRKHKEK
Sequence of KRAS G12S (P62937 whole entry): as the sequence (P62937 whole entry) above

As usually defined, the IC50 is the midpoint of a concentration-inhibition curve. On to `CCn1c(-c2cccnc2[C@H](C)OC)c2c3cc(ccc31)-c1cc(O)cc(c1)C[C@H](NC(=O)[C@H](C(C)C)N(C)C(=O)N1CC[C@@H](N(C)C(=O)[C@H]3CN3)C1)C(=O)N1CCC[C@H](N1)C(=O)OCC(C)(C)C2` (atropisomer, axis not shown) [Example 252], for which the IC50 was 100 to 1000 nM at NRAS Q61K; 100 to 1000 nM at NRAS Q61R; 10 to 100 nM on NRAS WT; 10 to 100 nM on KRAS WT; 100 to 1000 nM on KRAS G12D; below 10 nM at NRAS G12C. The IC50 is 100 to 1000 nM on KRAS G12S; 100 to 1000 nM on KRAS G13D; 10 to 100 nM at KRAS Q61H; 10 to 100 nM at KRAS G13C; 100 to 1000 nM on KRAS G12V; below 10 nM on KRAS G12C.

For `CCn1c(-c2cccnc2[C@H](C)OC)c2c3cc(ccc31)-c1cc(O)cc(c1)C[C@H](NC(=O)[C@H](C(C)C)N(C)C(=O)N1CC[C@@H](N(C)C(=O)[C@@H]3CN3)C1)C(=O)N1CCC[C@H](N1)C(=O)OCC(C)(C)C2` (atropisomer, axis not shown) [Example 253], the IC50 on NRAS Q61K lay in the range of 100 to 1000 nM; on NRAS Q61R it was 100 to 1000 nM; on NRAS WT, 10 to 100 nM; on KRAS WT, 10 to 100 nM; on KRAS G12D it was 100 to 1000 nM; at NRAS G12C it was 10 to 100 nM. Also, the IC50 on KRAS G12S is 100 to 1000 nM; on KRAS G13D it was 100 to 1000 nM; at KRAS Q61H, 10 to 100 nM; on KRAS G13C, 10 to 100 nM; at KRAS G12V, 100 to 1000 nM; at KRAS G12C, 10 to 100 nM.

Take `CCn1c(-c2cccnc2[C@H](C)OC)c2c3cc(ccc31)-c1cc(O)cc(c1)C[C@H](NC(=O)[C@H](C(C)C)N(C)C(=O)N1CC[C@H](N(C)C(=O)[C@H]3CN3)C1)C(=O)N1CCC[C@H](N1)C(=O)OCC(C)(C)C2` (atropisomer, axis not shown) [Example 254]: the IC50 at NRAS Q61K lay in the range of 100 to 1000 nM; on NRAS Q61R it was 100 to 1000 nM; on NRAS WT it was 100 to 1000 nM; on KRAS WT, 100 to 1000 nM; at KRAS G12D it was 100 to 1000 nM; at NRAS G12C, 10 to 100 nM. Moreover, the IC50 on KRAS G12S fell in the range of 100 to 1000 nM; at KRAS G13D, 100 to 1000 nM; at KRAS Q61H, 10 to 100 nM; on KRAS G13C, 10 to 100 nM; on KRAS G12V, 100 to 1000 nM; at KRAS G12C, 10 to 100 nM.

Take `CCn1c(-c2cccnc2[C@H](C)OC)c2c3cc(ccc31)-c1cc(O)cc(c1)C[C@H](NC(=O)[C@H](C(C)C)N(C)C(=O)N1CC[C@H](N(C)C(=O)[C@@H]3CN3)C1)C(=O)N1CCC[C@H](N1)C(=O)OCC(C)(C)C2` (atropisomer, axis not shown) [Example 255]: the IC50 lay within 100 to 1000 nM on NRAS Q61K; 100 to 1000 nM on NRAS Q61R; 10 to 100 nM on NRAS WT; 100 to 1000 nM at KRAS WT; 100 to 1000 nM at KRAS G12D; 10 to 100 nM on NRAS G12C. In addition, the IC50 on KRAS G12S is 10 to 100 nM; at KRAS G13D, 100 to 1000 nM; at KRAS Q61H, 10 to 100 nM; at KRAS G13C, 10 to 100 nM; on KRAS G12V, 100 to 1000 nM; on KRAS G12C it was 10 to 100 nM.

Take `CCn1c(-c2cccnc2[C@H](C)OC)c2c3cc(ccc31)-c1cc(O)cc(c1)C[C@H](NC(=O)[C@H](C(C)C)N(C)C(=O)CN(C)C(=O)[C@H]1C[C@@H]3N[C@@H]3C1)C(=O)N1CCC[C@H](N1)C(=O)OCC(C)(C)C2` (atropisomer, axis not shown) [Example 285]: the IC50 on NRAS Q61K was in the range of 100 to 1000 nM; at NRAS Q61R, 100 to 1000 nM; at NRAS WT, 10 to 100 nM; on KRAS WT it was 10 to 100 nM; at KRAS G12D, 10 to 100 nM; at NRAS G12C, 10 to 100 nM. Moreover, the IC50 on KRAS G12S was 10 to 100 nM; on KRAS G13D, 10 to 100 nM; on KRAS Q61H, 10 to 100 nM; on KRAS G13C it was below 10 nM; on KRAS G12V, 10 to 100 nM; on KRAS G12C, 10 to 100 nM.

Regarding `CCn1c(-c2cccnc2[C@H](C)OC)c2c3cc(ccc31)-c1cc(O)cc(c1)C[C@H](NC(=O)[C@H](C(C)C)N(C)C(=O)[C@H]1C[C@@H]3N[C@@H]3C1)C(=O)N1CCC[C@H](N1)C(=O)OCC(C)(C)C2` (atropisomer, axis not shown) [Example 286], the IC50 on NRAS Q61K, on NRAS Q61R, on NRAS WT, on KRAS WT, at KRAS G12D and on NRAS G12C was 100 to 1000 nM each time. The IC50 on KRAS G12S fell in the range of 100 to 1000 nM; on KRAS G13D, 10 to 100 nM; at KRAS Q61H, 10 to 100 nM; at KRAS G13C, 10 to 100 nM; on KRAS G12V, 100 to 1000 nM; at KRAS G12C it was 100 to 1000 nM.

For the molecule `CCn1c(-c2cccnc2[C@H](C)OC)c2c3cc(ccc31)-c1csc(n1)C[C@H](NC(=O)[C@H](C(C)C)N(C)C(=O)N1CCC[C@H](N(C)C(=O)[C@@H]3CN3)C1)C(=O)N1CCC[C@H](N1)C(=O)OCC(C)(C)C2` (atropisomer, axis not shown) [Example 292], the IC50 at NRAS Q61K is 100 to 1000 nM; at NRAS Q61R, 100 to 1000 nM; on NRAS WT, 100 to 1000 nM; on KRAS WT, 100 to 1000 nM; at KRAS G12D, 1000 to 10000 nM; on NRAS G12C, 100 to 1000 nM. The IC50 lay in the range of 100 to 1000 nM on KRAS G12S; 1000 to 10000 nM at KRAS G13D; 100 to 1000 nM on KRAS Q61H; 100 to 1000 nM on KRAS G13C; 100 to 1000 nM at KRAS G12V; 100 to 1000 nM at KRAS G12C.

Take `CCn1c(-c2cccnc2[C@H](C)OC)c2c3cc(ccc31)-c1csc(n1)C[C@H](NC(=O)[C@H](C(C)C)N(C)C(=O)N(C)CC1CN(C(=O)[C@H]3CN3)C1)C(=O)N1CCC[C@H](N1)C(=O)OCC(C)(C)C2` (atropisomer, axis not shown) [Example 293]: the IC50 at NRAS Q61K lay within 10 to 100 nM; at NRAS Q61R, 100 to 1000 nM; on NRAS WT, 100 to 1000 nM; on KRAS WT it was 100 to 1000 nM; on KRAS G12D, 100 to 1000 nM; at NRAS G12C, 10 to 100 nM. In addition, the IC50 at KRAS G12S is 100 to 1000 nM; at KRAS G13D it was 100 to 1000 nM; on KRAS Q61H it was 10 to 100 nM; on KRAS G13C, 100 to 1000 nM; on KRAS G12V it was 100 to 1000 nM; at KRAS G12C, 10 to 100 nM.

In the case of `CCn1c(-c2cccnc2[C@H](C)OC)c2c3cc(ccc31)-c1csc(n1)C[C@H](NC(=O)[C@H](C(C)C)N(C)C(=O)N(C)CC1CN(C(=O)[C@@H]3CN3)C1)C(=O)N1CCC[C@H](N1)C(=O)OCC(C)(C)C2` (atropisomer, axis not shown) [Example 294], the IC50 at NRAS Q61K lay within 10 to 100 nM; on NRAS Q61R it was 100 to 1000 nM; at NRAS WT, 100 to 1000 nM; on KRAS WT, 100 to 1000 nM; on KRAS G12D it was 100 to 1000 nM; on NRAS G12C, 10 to 100 nM. Besides, the 50% inhibitory concentration (IC50) lay in the range of 100 to 1000 nM on KRAS G12S; 100 to 1000 nM at KRAS G13D; 10 to 100 nM at KRAS Q61H; 100 to 1000 nM at KRAS G13C; 100 to 1000 nM on KRAS G12V; 10 to 100 nM on KRAS G12C.

Turning to `CCn1c(-c2cccnc2[C@H](C)OC)c2c3cc(ccc31)-c1csc(n1)C[C@H](NC(=O)[C@H](C(C)C)N(C)C(=O)N(C)[C@H]1CCCN(C(=O)[C@H]3CN3)C1)C(=O)N1CCC[C@H](N1)C(=O)OCC(C)(C)C2` (atropisomer, axis not shown) [Example 295], the IC50 lay in the range of 100 to 1000 nM at NRAS Q61K; 1000 to 10000 nM at NRAS Q61R; 100 to 1000 nM at NRAS WT; 100 to 1000 nM on KRAS WT; 1000 to 10000 nM at KRAS G12D; 100 to 1000 nM on NRAS G12C. The IC50 lay in the range of 1000 to 10000 nM at KRAS G12S; 1000 to 10000 nM at KRAS G13D; 100 to 1000 nM on KRAS Q61H; 1000 to 10000 nM at KRAS G13C; 1000 to 10000 nM on KRAS G12V; 100 to 1000 nM at KRAS G12C.

(Values after patent US20230233569A1 (Revolution Medicines, Inc., priority 2020, published 2023).)
